The values that follow are results of earlier work, collected in US20200016150A1, “TREATMENT OF THE PRURITIC SYMPTOMS OF LIVER DISEASE” (TREVI THERAPEUTICS, INC., priority 2018, published 2020).

The conditions of the data set: injectable formulations (i.e., IV or IM or SC).

As to `Cl.Oc1ccc2c3c1OC1[C@@H](O)CC[C@@]4(O)[C@@H](C2)N(CC2CCC2)CC[C@]314` (stereo partly drawn) [nalbuphine, 17-(cyclobutylmethyl)-4,5α-epoxymorphinan-3, 6α, 14-triol, hydrochloride], the half-life was 2 to 3 h.

As a reminder, the half-life is the time needed for the level to fall by half in the phase considered.
